We go through 3 compounds from patent US10226478B2, “Dosage regimen for sapacitabine and decitabine in combination for treating acute myeloid leukemia” (Cyclacel Limited, priority 2011, dated 2019).

Molecules are shown by their SMILES. Read-outs that look alike come from different tables or passages of the source.

The subject of assay [1] is HL60 cells. The assay can be described thus: 72 h single agent cytotoxicity, alamar blue assay. Conditions: Homo sapiens. Format: cell-based. How it is done: (§1) In order to complete the combination studies, the cytotoxic effects of individual compounds were determined.
(§2) A dilution series for each drug was prepared in medium. Two hours after seeding, an equal volume of each compound was added at twice the desired concentration and incubated for 72 hours. All treatments were performed in triplicate. At the end of the incubation, a 20% stock of alamar blue (Roche, Lewes, UK) was prepared in media, and an equal volume was added to each well and incubated for three hours. Absorbance was read at 544-595 nm and data was analysed (Excel Fit v4.0) to determine the IC50 (concentration of compound that inhibited cell growth by 50%) for each compound.
(In general: Resazurin is reduced to fluorescent resorufin, in cell work by metabolically active cells.)

The test system of assay [2] is MV4-11 cells. The assay is described as follows: 72 h single agent cytotoxicity, alamar blue assay. The class given is cell-based. Conditions: Homo sapiens. How it is done: as §1, §2
For assay [3], the system named is HL60 cells. The assay is described as follows: Annexin V staining (apoptosis, flow cytometry). Conditions: single agents, azacitidine 72 and 96 hours, CNDAC 48 or 72 hours. For orientation: In flow cytometry, cells or beads pass a laser one at a time.
Method: Single agent treatments were also performed as controls. After incubation cells were centrifuged at 500 g for 5 min, washed twice in PBS and once in annexin buffer (10 mM Hepes pH 7.4, 2.5 mM CaCl2, and 140 mM NaCl). Cells were resuspended at 1×10^6/ml and 100 μl was transferred to a 5 ml tube prior to incubation for 10 min in the dark at room temperature with 5 μl of annexin V-FITC stain (Beckton Dickinson) and 10 μl of propidium iodide [50 mg/ml]. Annexin buffer (1 ml) was added and the cells were analysed by flow cytometry. Annexin V positive cells (apoptotic) were designated on the basis of green fluorescence and propidium iodide (dead) positive cells were designated on the basis of red fluorescence.
Assay [4] has as its system cell line that is resistant to cytarabine. The settings on record: cited from earlier work.

A word on the IC50: it is the concentration at which inhibition is half-maximal.

Take `N#C[C@H]1[C@H](O)[C@@H](CO)O[C@H]1n1ccc(N)nc1=O` [CNDAC, 1-(2-C-Cyano-2-deoxy-β-D-arabino-pentafuranosyl)-cytosine]: the IC50 in assay [1] (HL-60, HL60 cells, 72 hour, read-out: 1×IC50) stood at 133 nM; in assay [1] (HL-60 cells, read-out: IC50), 130 nM; in assay [2], 460 nM. Moreover, in assay [3], the “annexin V, proportion of apoptotic cells” value is “little effect”.

Take `Nc1ccn([C@@H]2O[C@H](CO)[C@@H](O)[C@@H]2O)c(=O)n1` [cytarabine]: the IC50 in assay [4] (after 5-azacitidine (upregulation of dCK)) was 0.55 µM; in assay [4] (before 5-azacitidine) it was 12.5 µM.

For the compound `Nc1ncn([C@@H]2O[C@H](CO)[C@@H](O)[C@H]2O)c(=O)n1` [azacitidine, 4-amino-1-β-D-ribofuranosyl-s-triazin-2(1H)-one], the IC50 in assay [1] (HL-60, HL60 cells, 72 hour, half of the IC50, read-out: 0.5×IC50) was determined as 128 nM; in assay [1] (HL-60 cells, half of the IC50, read-out: 0.5×IC50), 130 nM. In addition, in assay [3], the “annexin V, proportion of apoptotic cells” value is “small increase in the proportion of apoptotic cells”.
